Key:
[1] = test system: passive cutaneous anaphylaxis (PCA); experiment: Passive cutaneous anaphylaxis assay (PCA) in rats; assay type: in vivo, rat (Wister strain); conditions: oral 10 mg/kg, one hour before antigen; for inhibition in vivo at 10 mg/kg: Rattus norvegicus, po, 1 h, read-out: PCA Inhibition Ratio %
Procedure: (§1) The effect of the compounds (I) of the present invention in the treatment of asthma and allergic diseases were evaluated by a passive cutaneous anaphylaxis assay (PCA) in rats and by measuring anti-SRS-A action using ileus of guinea pigs.
(i) Antiserum abundant in homocytotropic antibody is prepared by the same method as Tada and Okumura did (cf. Journal of Immunology, volume 106, page 1002, […]). Thus, one mg (calculated as an amount of protein) of DNP-As (2,4-dinitrophenyl-coupled ascaris extract) prepared by methods of Strejan and Campbell (Journal of Immunology, volume 98, page 893, 1971) and of Eisen (Journal of American Chemical Society, volume 85, page 4593, 1953) and […] pertussis vaccine are administered to each paw of Wister strain rats (180 to 200 grams body weights) by dividing the dose by four. Five days later, 0.5 mg of DNP-As is adminstered into muscle of back. Eight days later from the initial immunization, blood is taken from descending aorta under anesthetizing with ether, the resulting serum is stored at -80° C. and is melted before use.
(ii) Effect of tested compounds is investigated as follows:
Anti-serum obtained by the method (i) is diluted with physiological saline solution double by double successively and 0.05 ml of each diluted solution is administered into back of Wister strain rats (140 to 160 grams body weight) subcutaneously. After 72 hours, a solution of 2 mg (calculated as protein) of DNP-As and 2.5 mg of Evand Blue dissolved in 1 ml of physiological saline solution is administered intravenously at a dose of 5 ml/kg. After thirty minutes from antigen solution administration, the animals are killed and diameters of blue spots appeared at the place where antiserum is administered are measured. The PCA test is conducted by the same method as already described using a diluted solutions of antiserum which always show 10 mm or more of spot diameters and the effect of the test compounds is judged. Thus, antiserum diluted solutions are administered to two places in back. Test compounds are administered orally at the dose of 10 mg/kg one hour before administration of antigen solution. From the skin of reacted parts of killed animals, leaked or emitted dyestuff is extracted [cf. Baeck and Steinetz: J. Pharmacol. Exp. Ther., Vol. 131, page 400 (1961)] and the amount of the dyestuff is measured. The inhibition ratio is calculated by the following expression: [formula] in which R' is an amount of dyestuff in the group treated with the test compounds and A is that in the control group.

[2] = test system: SRS-A; experiment: Anti-SRS-A action (SRS-A induced shrinkage of guinea pig ileus); design: species or system guinea pig (Hartley strain male); conditions: treated five minutes before SRS-A (20 units), 5 min; for SRS-A Inhibition Ratio % 10^-6 M: 1 µM; for SRS-A Inhibition Ratio % 10^-7 M: 0.1 µM
Procedure: as §1
Anti-SRS-A action (An anti-action against slow reacting substance of anaphylaxie)
Hartley strain male guinea pigs (300 to 350 grams body weight) are killed and 1.0 to 1.5 cm of ileus is immediately excised from ileocecal parts and is suspended in 10 ml of Tyrode solution (95% O2 -5% CO2 saturation) containing 10^-7 g/ml of atropine and 10^-6 g/ml of pyrilamine. SRS-A (20 units) (the amount of SRS-A showing the same shrinkage as 5 ng of histamine is defined as one unit) prepared by using sensitized guinea pig lung is given to cause shrinkage there. Then antagonistic action of test compounds treated five minutes ago against the shrinkage is measured and recorded via isotonic transducer. [formula] in which A' is a height of shrinkage of SRS-A + test compound and A is that of SRS-A.

Compound | inhibition in vivo at 10 mg/kg [1] [%] | SRS-A Inhibition Ratio % 10^-6 M [2] [%] | SRS-A Inhibition Ratio % 10^-7 M [2] [%] | PCA Inhibition Ratio % [1] [%]
Cc1c(-c2ccc(C(C)C)cc2)oc2c(C(=O)O)cccc2c1=O [Example 7, 4'-Isopropyl-3-methylflavone-8-carboxylic acid] | 19.7 | 40.8 | 19.0 | –
COC(=O)c1cccc2c(=O)c(C)c(-c3ccccc3)oc12 [Example 8, Methyl 3-methylflavone-8-carboxylate] | 17.4 | 64.9 | 45.0 | –
CCN(CC)C(=O)c1cccc2c(=O)c(C)c(-c3ccccc3)oc12 [Example 9, 3-methylflavone-8-carboxylic acid N,N-diethylamide] | 21.9 | 64.7 | 50.7 | –
CCN(CC)C(=O)c1cccc2c(=O)c(C)c(-c3ccccc3OC)oc12 [Example 12, 2'-methoxy-3-methylflavone-8-carboxylic acid N,N-diethylamide] | 19.2 | 52.4 | 8.3 | –
CCNC(=O)c1cccc2c(=O)c(C)c(-c3ccc(OC)cc3)oc12 [Example 15, 4'-methoxy-3-methylflavoen-8-carboxylic acid N-ethylamide] | 19 | 41.9 | 30.3 | –
CCOc1ccccc1-c1oc2c(C(=O)O)cccc2c(=O)c1C [Example 16, 2'-ethoxy-3-methylflavone-8-carboxylic acid] | 18.6 | 14.8 | 10.4 | –
CCOC(=O)c1cccc2c(=O)c(C)c(-c3ccccc3OCC)oc12 [Example 17, ethyl 2'-ethoxy-3-methylflavone-8-carboxylate] | 21.1 | 72.5 | 50.0 | –
CCNC(=O)c1cccc2c(=O)c(C)c(-c3ccccc3OCC)oc12 [Example 19, 2'-ethoxy-3-methylflavone-8-carboxylic acid N-ethylamide] | 16 | 50.0 | 30.0 | –
CCOC(=O)c1cccc2c(=O)c(C)c(-c3ccccc3OC(C)C)oc12 [Example 21, ethyl 2'-isopropoxy-3-methylflavone-8-carboxylate] | 17.8 | 31.0 | 19.8 | –
CCN(CC)C(=O)c1cccc2c(=O)c(C)c(-c3ccccc3OC(C)C)oc12 [Example 22, 2'-isopropoxy-3-methylflavone-8-carboxylic acid N,N-diethylamide] | 16.1 | 66.7 | 40.0 | –
COc1cccc(-c2oc3c(C(=O)O)cccc3c(=O)c2C)c1OC [Example 23, 2',3'-dimethoxy-3-methylflavone-8-carboxylic acid] | 19.5 | 24.0 | 6.2 | –
CCOC(=O)c1cccc2c(=O)c(C)c(-c3cccc(OC)c3OC)oc12 [Example 24, ethyl 2'.3'-dimethoxy-3-methylflavone-8-carboxylate] | 20.4 | 100 | 18.2 | –
CCN(CC)C(=O)c1cccc2c(=O)c(C)c(-c3ccc(OC)cc3OC)oc12 [Example 28, 2',4'-dimethoxy-3-methylflavone-8-carboxylic acid N,N-diethylamide] | 20.1 | 63.2 | 23.0 | –
CCN(CC)C(=O)c1cccc2c(=O)c(C)c(-c3ccc(OC)c(OC)c3OC)oc12 [Example 30, 2',3',4'-trimethoxy-3-methylflavone-8-carboxylic acid N,N-diethylamide] | 16.3 | 31.0 | 18.0 | –
CCOC(=O)c1cccc2c(=O)c(C)c(-c3ccc(OC)c(OC)c3OC)oc12 [Example 31, ethyl 2',3',4'-trimethoxy-3-methylflaveone-8-carboxylate] | – | 63.0 | 20.4 | 20.2
CCOC(=O)c1cccc2c(=O)c(C)c(-c3ccccc3C)oc12 [Example 34, 2',3-dimethylflavone-8-carboxylic acid ethyl ester] | 19.5 | 71.4 | 47.6 | –
CCOC(=O)c1cccc2c(=O)c(C)c(-c3ccccc3CC)oc12 [Example 37, ethyl 2'-ethyl-3-methylflavone-8-carboxylate] | 20.5 | 100 | 25.0 | –
CCc1ccccc1-c1oc2c(C(=O)N(CC)CC)cccc2c(=O)c1C [Example 38, 2'-ethyl-3-methylflavone-8-carboxylic acid N,N-diethylamide] | 16 | 100 | 29.6 | –
Cc1ccc(-c2oc3c(C(=O)O)cccc3c(=O)c2C)c(C)c1 [Example 39, 2',3,4'-trimethylflavone-8-carboxylic acid] | 37 | 5.3 | 3.2 | –
CCOC(=O)c1cccc2c(=O)c(C)c(-c3ccc(C)cc3C)oc12 [Example 40, ethyl 2',3,4'-trimethylflavone-8-carboxylate] | 17.3 | 73.9 | 8.1 | –
CCN(CC)C(=O)c1cccc2c(=O)c(C)c(-c3ccc(C)cc3C)oc12 [Example 41, 2',3,4'-trimethylflavone-8-carboxylic acid N,N-diethylamide] | 31.4 | 54.1 | 23.4 | –
Cc1ccc(-c2oc3c(C(=O)OCCO)cccc3c(=O)c2C)c(C)c1 [Example 42, beta-hydroxyethyl 2'.3.4'-trimethylflavone-8-carboxylate] | 19.8 | 27.6 | 10.3 | –
CCCCN(CC)C(=O)c1cccc2c(=O)c(C)c(-c3ccc(C)cc3C)oc12 [Example 43, 2',3,4'-trimethylflavone-8-carboxylic acid N-n-butyl-N-ethylamide] | 18.8 | 68.1 | 23.4 | –
CCOC(=O)c1cccc2c(=O)c(C)c(-c3ccc(CC)cc3)oc12 [Example 45, ethyl 4'-ethyl-3-methylflavone-8-carboxylate] | 19 | 52.2 | 16.0 | –
CCCCN(CCCC)C(=O)c1cccc2c(=O)c(C)c(-c3ccc(C(C)C)cc3)oc12 [Example 49, 4'-isopropyl-3-methylflavone-8-carboxylic acid N,N-di-n-butylamide] | 20 | 82.8 | 55.6 | –
CCCCN(CC)C(=O)c1cccc2c(=O)c(C)c(-c3ccc(C(C)C)cc3)oc12 [Example 50, 4'-isopropyl-3-methylflavone-8-carboxylic acid N-n-butyl-N-ethylamide] | 21.4 | 100 | 70.0 | –
CCNC(=O)c1cccc2c(=O)c(C)c(-c3ccc(C(C)C)cc3)oc12 [Example 51, 4'-isopropyl-3-methylflavone-8-carboxylic acid N-ethylamide] | 19 | 75.0 | 17.5 | –
